From PubChem BioAssay (NCI)
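Exposure lasted 48 hours, with cells grown in 96-well plates and compounds tested at five concentrations. Abbreviation: GI50, concentration required for 50% inhibition of growth. The concentration for full growth arrest is given as TGI.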

Legend:
Assay in all cases: NCI tumour cell line growth inhibition, 48 h
786-0 renal = tested on: 786-0 renal
A498 renal = tested on: A498 renal
A549 NSCLC = tested on: A549 NSCLC
ACHN renal = tested on: ACHN renal
BT-549 breast = tested on: BT-549 breast
CAKI-1 renal = tested on: CAKI-1 renal
COLO 205 colon = tested on: COLO 205 colon
DU-145 prostate = tested on: DU-145 prostate
EKVX NSCLC = tested on: EKVX NSCLC
HCC-2998 colon = tested on: HCC-2998 colon
HCT-116 colon = tested on: HCT-116 colon
HCT-15 colon = tested on: HCT-15 colon
HL-60(TB) leukemia = tested on: HL-60(TB) leukemia
HOP-62 NSCLC = tested on: HOP-62 NSCLC
HOP-92 NSCLC = tested on: HOP-92 NSCLC
HS 578T breast = tested on: HS 578T breast
HT29 colon = tested on: HT29 colon
IGROV1 ovarian = tested on: IGROV1 ovarian
K-562 leukemia = tested on: K-562 leukemia
KM12 colon = tested on: KM12 colon
LOX IMVI melanoma = tested on: LOX IMVI melanoma
M14 melanoma = tested on: M14 melanoma
MALME-3M melanoma = tested on: MALME-3M melanoma
MCF7 breast = tested on: MCF7 breast
MDA-MB-231 breast = tested on: MDA-MB-231 breast
MDA-MB-435 = tested on: MDA-MB-435
MOLT-4 leukemia = tested on: MOLT-4 leukemia
NCI-H226 lung = tested on: NCI-H226 lung
NCI-H460 lung = tested on: NCI-H460 lung
NCI-H522 lung = tested on: NCI-H522 lung
NCI/ADR-RES ovarian = tested on: NCI/ADR-RES ovarian
OVCAR-3 ovarian = tested on: OVCAR-3 ovarian
OVCAR-4 ovarian = tested on: OVCAR-4 ovarian
OVCAR-5 ovarian = tested on: OVCAR-5 ovarian
OVCAR-8 ovarian = tested on: OVCAR-8 ovarian
PC-3 prostate = tested on: PC-3 prostate
RPMI-8226 leukemia = tested on: RPMI-8226 leukemia
RXF 393 renal = tested on: RXF 393 renal
SF-268 CNS = tested on: SF-268 CNS
SF-295 CNS = tested on: SF-295 CNS
SF-539 CNS = tested on: SF-539 CNS
SK-MEL-2 melanoma = tested on: SK-MEL-2 melanoma
SK-MEL-28 melanoma = tested on: SK-MEL-28 melanoma
SK-MEL-5 melanoma = tested on: SK-MEL-5 melanoma
SK-OV-3 ovarian = tested on: SK-OV-3 ovarian
SN12C renal = tested on: SN12C renal
SNB-19 CNS = tested on: SNB-19 CNS
SNB-75 CNS = tested on: SNB-75 CNS
SR leukemia = tested on: SR leukemia
SW-620 colon = tested on: SW-620 colon
T-47D breast = tested on: T-47D breast
TK-10 renal = tested on: TK-10 renal
U251 CNS = tested on: U251 CNS
UACC-257 melanoma = tested on: UACC-257 melanoma
UACC-62 melanoma = tested on: UACC-62 melanoma
UO-31 renal = tested on: UO-31 renal

N#Cc1nc(-c2ccccc2)oc1S(=O)(=O)N1CCN(CCc2ccccn2)CC1
GI50 (786-0 renal): 2.21 µM
TGI (786-0 renal): 6.09 µM
GI50 (A498 renal): > 100 µM
TGI (A498 renal): > 100 µM
GI50 (A549 NSCLC): 24.6 µM
TGI (A549 NSCLC): > 100 µM
GI50 (ACHN renal): 1.67 µM
TGI (ACHN renal): 3.09 µM
GI50 (BT-549 breast): 3.36 µM
TGI (BT-549 breast): 12.7 µM
GI50 (CAKI-1 renal): 1.18 µM
TGI (CAKI-1 renal): 2.41 µM
GI50 (COLO 205 colon): 1.54 µM
TGI (COLO 205 colon): 3.02 µM
GI50 (DU-145 prostate): 4.56 µM
TGI (DU-145 prostate): 22.3 µM
GI50 (EKVX NSCLC): 23.3 µM
TGI (EKVX NSCLC): 68.2 µM
GI50 (HCC-2998 colon): 14.2 µM
TGI (HCC-2998 colon): 28.9 µM
GI50 (HCT-116 colon): 1.28 µM
TGI (HCT-116 colon): 2.61 µM
GI50 (HCT-15 colon): 1.86 µM
TGI (HCT-15 colon): 5.87 µM
GI50 (HL-60(TB) leukemia): 1.55 µM
TGI (HL-60(TB) leukemia): 4.85 µM
GI50 (HOP-62 NSCLC): 20.8 µM
TGI (HOP-62 NSCLC): 58.9 µM
GI50 (HOP-92 NSCLC): 2.23 µM
TGI (HOP-92 NSCLC): 6.92 µM
GI50 (HS 578T breast): 17.3 µM
TGI (HS 578T breast): 61.9 µM
GI50 (HT29 colon): 1.72 µM
TGI (HT29 colon): 3.44 µM
GI50 (IGROV1 ovarian): 15.1 µM
TGI (IGROV1 ovarian): 47.9 µM
GI50 (K-562 leukemia): 0.562 µM
TGI (K-562 leukemia): 7.78 µM
GI50 (KM12 colon): 13.5 µM
TGI (KM12 colon): 36.4 µM
GI50 (LOX IMVI melanoma): 1.22 µM
TGI (LOX IMVI melanoma): 2.69 µM
GI50 (M14 melanoma): 2.29 µM
TGI (M14 melanoma): 9.51 µM
GI50 (MALME-3M melanoma): 1.87 µM
TGI (MALME-3M melanoma): 3.69 µM
GI50 (MCF7 breast): 1.83 µM
TGI (MCF7 breast): 10.2 µM
GI50 (MDA-MB-231 breast): 15.5 µM
TGI (MDA-MB-231 breast): 34.4 µM
GI50 (MDA-MB-435): 4.08 µM
TGI (MDA-MB-435): 16.7 µM
GI50 (MOLT-4 leukemia): 2.16 µM
TGI (MOLT-4 leukemia): 8.35 µM
GI50 (NCI-H226 lung): 2.58 µM
TGI (NCI-H226 lung): 7.78 µM
GI50 (NCI-H460 lung): 12.3 µM
TGI (NCI-H460 lung): 32.7 µM
GI50 (NCI-H522 lung): 1.04 µM
TGI (NCI-H522 lung): 2.36 µM
GI50 (NCI/ADR-RES ovarian): 19.3 µM
TGI (NCI/ADR-RES ovarian): 94.5 µM
GI50 (OVCAR-3 ovarian): 1.67 µM
TGI (OVCAR-3 ovarian): 3.22 µM
GI50 (OVCAR-4 ovarian): 2.91 µM
TGI (OVCAR-4 ovarian): 9.94 µM
GI50 (OVCAR-5 ovarian): 12.5 µM
TGI (OVCAR-5 ovarian): 26 µM
GI50 (OVCAR-8 ovarian): 14 µM
TGI (OVCAR-8 ovarian): 49.9 µM
GI50 (PC-3 prostate): 12.3 µM
TGI (PC-3 prostate): 26.7 µM
GI50 (RPMI-8226 leukemia): 2.75 µM
GI50 (RXF 393 renal): 1.89 µM
TGI (RXF 393 renal): 3.74 µM
GI50 (SF-268 CNS): 10.5 µM
TGI (SF-268 CNS): 35.9 µM
GI50 (SF-295 CNS): 29.2 µM
TGI (SF-295 CNS): 87.2 µM
GI50 (SF-539 CNS): 3.99 µM
TGI (SF-539 CNS): 13.7 µM
GI50 (SK-MEL-2 melanoma): 12.4 µM
TGI (SK-MEL-2 melanoma): 29.2 µM
GI50 (SK-MEL-28 melanoma): 2.9 µM
TGI (SK-MEL-28 melanoma): 9.42 µM
GI50 (SK-MEL-5 melanoma): 16.7 µM
TGI (SK-MEL-5 melanoma): 32.4 µM
GI50 (SK-OV-3 ovarian): 30.4 µM
TGI (SK-OV-3 ovarian): > 100 µM
GI50 (SN12C renal): 10.4 µM
TGI (SN12C renal): 24.2 µM
GI50 (SNB-19 CNS): 20.5 µM
TGI (SNB-19 CNS): 57.9 µM
GI50 (SNB-75 CNS): 12.3 µM
TGI (SNB-75 CNS): 24.8 µM
GI50 (SR leukemia): 1.41 µM
TGI (SR leukemia): 5.19 µM
GI50 (SW-620 colon): 0.985 µM
TGI (SW-620 colon): 2.7 µM
GI50 (T-47D breast): 1.87 µM
TGI (T-47D breast): 4.41 µM
GI50 (TK-10 renal): 7.32 µM
TGI (TK-10 renal): 19.7 µM
GI50 (U251 CNS): 13.5 µM
TGI (U251 CNS): 27 µM
GI50 (UACC-257 melanoma): 4.58 µM
TGI (UACC-257 melanoma): 17.5 µM
GI50 (UACC-62 melanoma): 9.85 µM
TGI (UACC-62 melanoma): 23.2 µM
GI50 (UO-31 renal): 2.64 µM
TGI (UO-31 renal): 9.81 µM
